#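 Growth conditions: 96-well plates. Treatment: test compound, 48 hours, 5 concentrations. Analysis: linear interpolation between bracketing concentrations; unreached endpoints set to highest concentration. TGI: concentration producing complete growth inhibition.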
# Tests used:
# Experiment in all cases: NCI-60 cell line screen, 48 h
# 786-0 renal = tested on: 786-0 renal
# A498 renal = tested on: A498 renal
# A549 NSCLC = tested on: A549 NSCLC
# ACHN renal = tested on: ACHN renal
# CAKI-1 renal = tested on: CAKI-1 renal
# CCRF-CEM leukemia = tested on: CCRF-CEM leukemia
# COLO 205 colon = tested on: COLO 205 colon
# DLD-1 colon = tested on: DLD-1 colon
# DMS 114 small cell lung = tested on: DMS 114 small cell lung
# DMS 273 small cell lung = tested on: DMS 273 small cell lung
# EKVX NSCLC = tested on: EKVX NSCLC
# HCC-2998 colon = tested on: HCC-2998 colon
# HCT-116 colon = tested on: HCT-116 colon
# HCT-15 colon = tested on: HCT-15 colon
# HL-60(TB) leukemia = tested on: HL-60(TB) leukemia
# HOP-18 NSCLC = tested on: HOP-18 NSCLC
# HOP-62 NSCLC = tested on: HOP-62 NSCLC
# HOP-92 NSCLC = tested on: HOP-92 NSCLC
# HT29 colon = tested on: HT29 colon
# IGROV1 ovarian = tested on: IGROV1 ovarian
# K-562 leukemia = tested on: K-562 leukemia
# KM12 colon = tested on: KM12 colon
# KM20L2 colon = tested on: KM20L2 colon
# LOX IMVI melanoma = tested on: LOX IMVI melanoma
# LXFL 529 NSCLC = tested on: LXFL 529 NSCLC
# M14 melanoma = tested on: M14 melanoma
# M19-MEL melanoma = tested on: M19-MEL melanoma
# MALME-3M melanoma = tested on: MALME-3M melanoma
# MOLT-4 leukemia = tested on: MOLT-4 leukemia
# NCI-H226 lung = tested on: NCI-H226 lung
# NCI-H23 lung = tested on: NCI-H23 lung
# NCI-H460 lung = tested on: NCI-H460 lung
# NCI-H522 lung = tested on: NCI-H522 lung
# OVCAR-3 ovarian = tested on: OVCAR-3 ovarian
# OVCAR-4 ovarian = tested on: OVCAR-4 ovarian
# OVCAR-5 ovarian = tested on: OVCAR-5 ovarian
# OVCAR-8 ovarian = tested on: OVCAR-8 ovarian
# RPMI-8226 leukemia = tested on: RPMI-8226 leukemia
# RXF-631 renal = tested on: RXF-631 renal
# SF-268 CNS = tested on: SF-268 CNS
# SF-295 CNS = tested on: SF-295 CNS
# SK-MEL-2 melanoma = tested on: SK-MEL-2 melanoma
# SK-MEL-28 melanoma = tested on: SK-MEL-28 melanoma
# SK-MEL-5 melanoma = tested on: SK-MEL-5 melanoma
# SK-OV-3 ovarian = tested on: SK-OV-3 ovarian
# SN12C renal = tested on: SN12C renal
# SNB-19 CNS = tested on: SNB-19 CNS
# SNB-75 CNS = tested on: SNB-75 CNS
# SNB-78 CNS = tested on: SNB-78 CNS
# SW-620 colon = tested on: SW-620 colon
# TK-10 renal = tested on: TK-10 renal
# U251 CNS = tested on: U251 CNS
# UACC-257 melanoma = tested on: UACC-257 melanoma
# UACC-62 melanoma = tested on: UACC-62 melanoma
# UO-31 renal = tested on: UO-31 renal
# RXF 393 renal = tested on: RXF 393 renal
# SF-539 CNS = tested on: SF-539 CNS
# SR leukemia = tested on: SR leukemia
smiles,measurement,setting,value
O=C(O)CNCc1c2ccccc2[n+]([O-])c2ccccc12,TGI,786-0 renal,> 100 µM
same,TGI,A498 renal,> 100 µM
same,TGI,A549 NSCLC,> 100 µM
same,TGI,ACHN renal,> 100 µM
same,TGI,CAKI-1 renal,> 100 µM
same,TGI,CCRF-CEM leukemia,> 100 µM
same,TGI,COLO 205 colon,> 100 µM
same,TGI,DLD-1 colon,> 100 µM
same,TGI,DMS 114 small cell lung,> 100 µM
same,TGI,DMS 273 small cell lung,> 100 µM
same,TGI,EKVX NSCLC,> 100 µM
same,TGI,HCC-2998 colon,> 100 µM
same,TGI,HCT-116 colon,> 100 µM
same,TGI,HCT-15 colon,> 100 µM
same,TGI,HL-60(TB) leukemia,91.1 µM
same,TGI,HOP-18 NSCLC,> 100 µM
same,TGI,HOP-62 NSCLC,> 100 µM
same,TGI,HOP-92 NSCLC,78.1 µM
same,TGI,HT29 colon,> 100 µM
same,TGI,IGROV1 ovarian,> 100 µM
same,TGI,K-562 leukemia,> 100 µM
same,TGI,KM12 colon,> 100 µM
same,TGI,KM20L2 colon,> 100 µM
same,TGI,LOX IMVI melanoma,> 100 µM
same,TGI,LXFL 529 NSCLC,> 100 µM
same,TGI,M14 melanoma,> 100 µM
same,TGI,M19-MEL melanoma,> 100 µM
same,TGI,MALME-3M melanoma,> 100 µM
same,TGI,MOLT-4 leukemia,> 100 µM
same,TGI,NCI-H226 lung,> 100 µM
same,TGI,NCI-H23 lung,> 100 µM
same,TGI,NCI-H460 lung,> 100 µM
same,TGI,NCI-H522 lung,> 100 µM
same,TGI,OVCAR-3 ovarian,> 100 µM
same,TGI,OVCAR-4 ovarian,> 100 µM
same,TGI,OVCAR-5 ovarian,> 100 µM
same,TGI,OVCAR-8 ovarian,> 100 µM
same,TGI,RPMI-8226 leukemia,> 100 µM
same,TGI,RXF-631 renal,> 100 µM
same,TGI,SF-268 CNS,> 100 µM
same,TGI,SF-295 CNS,> 100 µM
same,TGI,SK-MEL-2 melanoma,> 100 µM
same,TGI,SK-MEL-28 melanoma,> 100 µM
same,TGI,SK-MEL-5 melanoma,> 100 µM
same,TGI,SK-OV-3 ovarian,> 100 µM
same,TGI,SN12C renal,> 100 µM
same,TGI,SNB-19 CNS,> 100 µM
same,TGI,SNB-75 CNS,> 100 µM
same,TGI,SNB-78 CNS,> 100 µM
same,TGI,SW-620 colon,> 100 µM
same,TGI,TK-10 renal,> 100 µM
same,TGI,U251 CNS,> 100 µM
same,TGI,UACC-257 melanoma,> 100 µM
same,TGI,UACC-62 melanoma,> 100 µM
same,TGI,UO-31 renal,91.7 µM
Cc1ccc2[nH]c(=O)c(C(C#N)c3ccccc3)nc2c1 (centres undefined),TGI,786-0 renal,> 100 µM
same,TGI,A498 renal,> 100 µM
same,TGI,A549 NSCLC,> 100 µM
same,TGI,ACHN renal,> 100 µM
same,TGI,CAKI-1 renal,76.9 µM
same,TGI,CCRF-CEM leukemia,> 100 µM
same,TGI,COLO 205 colon,54.8 µM
same,TGI,DLD-1 colon,> 100 µM
same,TGI,DMS 273 small cell lung,> 100 µM
same,TGI,EKVX NSCLC,84 µM
same,TGI,HCC-2998 colon,> 100 µM
same,TGI,HCT-116 colon,> 100 µM
same,TGI,HCT-15 colon,> 100 µM
same,TGI,HOP-18 NSCLC,> 100 µM
same,TGI,HOP-62 NSCLC,> 100 µM
same,TGI,HOP-92 NSCLC,93.8 µM
same,TGI,HT29 colon,> 100 µM
same,TGI,IGROV1 ovarian,> 100 µM
same,TGI,K-562 leukemia,> 100 µM
same,TGI,KM12 colon,> 100 µM
same,TGI,KM20L2 colon,92.3 µM
same,TGI,LOX IMVI melanoma,> 100 µM
same,TGI,LXFL 529 NSCLC,> 100 µM
same,TGI,M14 melanoma,> 100 µM
same,TGI,MALME-3M melanoma,> 100 µM
same,TGI,MOLT-4 leukemia,> 100 µM
same,TGI,NCI-H226 lung,> 100 µM
same,TGI,NCI-H23 lung,> 100 µM
same,TGI,NCI-H460 lung,> 100 µM
same,TGI,NCI-H522 lung,70.7 µM
same,TGI,OVCAR-3 ovarian,> 100 µM
same,TGI,OVCAR-4 ovarian,> 100 µM
same,TGI,OVCAR-5 ovarian,> 100 µM
same,TGI,RPMI-8226 leukemia,> 100 µM
same,TGI,RXF 393 renal,78.8 µM
same,TGI,RXF-631 renal,> 100 µM
same,TGI,SF-268 CNS,> 100 µM
same,TGI,SF-295 CNS,> 100 µM
same,TGI,SF-539 CNS,> 100 µM
same,TGI,SK-MEL-2 melanoma,65.4 µM
same,TGI,SK-MEL-28 melanoma,> 100 µM
same,TGI,SK-MEL-5 melanoma,57.8 µM
same,TGI,SK-OV-3 ovarian,> 100 µM
same,TGI,SN12C renal,> 100 µM
same,TGI,SNB-19 CNS,89.2 µM
same,TGI,SNB-75 CNS,> 100 µM
same,TGI,SNB-78 CNS,80.1 µM
same,TGI,SR leukemia,> 100 µM
same,TGI,SW-620 colon,> 100 µM
same,TGI,TK-10 renal,> 100 µM
same,TGI,U251 CNS,84.5 µM
same,TGI,UACC-257 melanoma,> 100 µM
same,TGI,UACC-62 melanoma,75.1 µM
same,TGI,UO-31 renal,69.9 µM

# From PubChem BioAssay (NCI)
